6 compounds from patent US20230165874A1, “ANTICOAGULANT COMPOUNDS AND METHODS AND DEVICES FOR THEIR PULMONARY USE” (priority 2020, published 2023) can be followed below.

In brackets after ≈: the same amount, converted by molar mass. Counter-ions that a name gives are not always drawn.

In data set [1] the test system is Calcium-reconstituted sheep blood. Put plainly: Activated clotting time (ACT), Hemochron Response. As to conditions: individual drug at 0.6 ng/mg. The class given is biochemical. Here is the method:
The activated clotting time (ACT) evaluation of anticoagulants was performed in Calcium-reconstituted sheep blood and recorded employing the Hemochron® Response device. […] A target amount of drug solution was then added into the test tube. […] The tube was gently shaken before being inserted into the Hemochron Response detector. The ACT read out was recorded and reported. The ACT of the control blood in the absence of any drug as first determined to establish a baseline. Then ACT was determined in the presence of different concentrations of the drug as a single component. Selected drug combinations, were then tested to evaluate for potential synergy in action between the two drugs.

Data set [2] is described as follows: in vivo. As to conditions: male, Sprague-Dawley, rat; for Tmax: inhaled or intranasal. Set-up: species or system Sprague-Dawley rats. Here is the method: At their assigned time-point, rats were anesthetized and subjected to exsanguination via an abdominal vessel and gross necropsy. Whole blood (two ˜1.5 ml aliquots, K2EDTA) was collected. The whole blood was stored frozen at −60° C. or lower until shipped overnight with dry ice for further evaluation.
Whole blood (two ˜100 μL aliquots, K2EDTA) was collected from the catheter of conscious rats for systemic pharmacokinetics (PK) at the time-points. Whole blood samples were stored at −60° C. or lower until shipped overnight on dry ice for further evaluation.

Details of data set [3]: species or system Sprague-Dawley rats. The settings on record: male, Sprague-Dawley, rat, in vivo. Here is the method: The lungs were removed and divided into left and right lung. Each half of the lung was weighed and placed in separate vials (for Pharmacokinetics analysis), snap frozen in liquid nitrogen and stored frozen at −60° C. or lower until shipped overnight on dry ice for further evaluation.
Each half of the lung was weighed and placed in separate vials (for Pharmacokinetics analysis), snap frozen in liquid nitrogen and stored frozen at −60° C. or lower until shipped overnight on dry ice to the sponsor for further evaluation.

A short description of data set [4]: Solubility in water / aqueous buffer / Captisol.
Data set [5] has as its system porcine coronary artery. Put plainly: Histopathology scores (fibrin, injury, inflammation) of stented porcine coronary arteries. The settings on record: for inhibiting fibrin formation compared to bare metal control stents: at 7 days, released from stents.
A short description of data set [6]: Coated balloon tissue drug concentration in vivo (LCMS). Set-up: species or system porcine. The settings on record: pig, 300 μg. From the text: The balloon (e.g., the balloon of a balloon-catheter of a stent-delivery system) was advanced to a site to be treated (e.g., an occluded or weakened section of a blood vessel to be opened up or supported by a stent) in the body of a subject and inflated to a desired inflation diameter. Before, during, and/or after inflation of the balloon, the balloon released the therapeutic composition to, into, or at the treatment site, or to, into, or at an area adjacent thereto, by any suitable mechanism (e.g., concentration gradient, diffusion, pressure, or mechanical force, or a combination thereof). […] The tissue concentration is shown in ng/mg tissue. The coated balloons were evaluated for drug delivery efficiency in an animal study. Drug transfer of the coated balloons into arterial segments were evaluated using harvested pig arteries. The arterial wall was separated after animal study. The arterial walls were then stored in an individual labeled vial. All samples were kept on dry ice until stored in the −80° C. freezer. All samples were then frozen to […] prior to being analyzed.

Data set [7] in a line: in vivo. The settings on record: pig, whole blood.
Data set [8] can be described thus: Whole blood PK of drug eluting stents. The settings on record: for concentration at 180 min: 180 min. (3 hr); for concentration at 60 min: 60 min. (1 hr); for concentration at 120 min: 120 min. (2 hr).
For data set [9], the system named is porcine coronary artery. Put plainly: Quantitative coronary angiography (late lumen loss, diameter stenosis) after stent implantation. As to conditions: at 7 days, released from stents.
Where [10] appears, read: pig, whole blood, other: drug eluting stent implanted in coronary artery, Whole blood concentration, SS16 stents, 1 H group.
The mark [11] stands for this setting: pig, whole blood, other: drug eluting stents implanted in coronary arteries, Whole blood concentration, SS16 stents, 1 D group.
The mark [12] stands for this setting: pig, whole blood, other: drug eluting stents implanted in coronary arteries, Whole blood concentration, SS17 stents, 1 D group.
Setting [13] is: pig, whole blood, other: drug eluting stents implanted in coronary arteries, Whole blood concentration, SS17 stents, 1 H group.

For the compound `COc1ccc(-n2nc(C(N)=O)c3c2C(=O)N(c2ccc(N4CCCCC4=O)cc2)CC3)cc1` [Apixaban], in [1], the ACT was 522. Also, in “in vivo [2]”, the time of peak concentration (Tmax) (commonly the time at which the peak concentration occurs) lay in the range of 5 to 10 min. In addition, in data set [3], the “time the drug content in lung tissue lasted” value was “up to 3.5 hours” and the “time the drug content in lungs tissue lasted” value is reported as “up to 1 hours”. The solubility – broadly, the concentration that dissolves in the medium under given conditions – in [4] (aqueous buffer, solubility in aqueous buffers, drug alone) is approximately 28 µg/mL (≈ 60.9 µM). This compound came in with a solubility in data set [4] (water, solubility in water) of approximately 28 µg/mL (≈ 60.9 µM).

As for `CC1CNc2c(cccc2S(=O)(=O)N[C@@H](CCCNC(=N)N)C(=O)N2CC[C@@H](C)C[C@@H]2C(=O)O)C1` (some centres unmarked) [Argatroban], the ACT in data set [1] is reported as 301. The Tmax in the data set “in vivo [2]” is approximately 60 min. For the same compound, in data set [3], the “time the drug content in lung tissue lasted” value is reported as “more than 6 hours” and the “time the drug content in lungs tissue lasted” value is listed as “more than 5 hours”. This compound also displayed a solubility in the data set “physchem” (aqueous buffer, solubility in aqueous buffers) of approximately 3000 µg/mL (≈ 5900 µM). In addition, the solubility in “physchem” (water, solubility in water) was approximately 3000 µg/mL (≈ 5900 µM). In the data set on porcine coronary artery [5], the “inhibiting fibrin formation compared to bare metal control stents” value is listed as “not more effective”.

As for `CN1CCCC(n2nc(Cc3ccc(Cl)cc3)c3ccccc3c2=O)CC1` (centres unmarked) [Azelastine, Azelastine hydrochloride], the “time the systemic drug in whole blood lasted” value in “in vivo [2]” is reported as “up to 2 hours”. Also, the “time the drug content in lungs tissue lasted” value in data set [3] is recorded as “more than 5 hours”.

Regarding `CCN(CCO)CCCC(C)Nc1ccnc2cc(Cl)ccc12` (centres unmarked) [Hydroxychloroquine, Hydroxychloroquine sulfate], the “time the systemic drug in whole blood lasted” value in the data set “in vivo [2]” is “more than 5 hours”. For the same compound, in [3], the “time the drug content in lungs tissue lasted” value was “more than 5 hours”.

Consider `O=C(NC[C@H]1CN(c2ccc(N3CCOCC3=O)cc2)C(=O)O1)c1ccc(Cl)s1` [Rivaroxaban], for which the concentration at 15 min turned out to be 1230 ± 370 ng/g in data set [6] (coronary artery wall); 40600 ± 64700 ng/g in [6] (superficial femoral artery wall); 3.32 ng/mL in the data set “in vivo [7]” (other: drug eluting stent implanted in coronary artery); 24 ng/mL in [8] (setting [12]); 10.8 ng/mL in [8] (setting [13]). Moreover, the concentration at 150 min in “in vivo [7]” (other: drug eluting stents implanted in coronary arteries) turned out to be 2.08 ng/mL; in data set [8] (pig, whole blood, other: drug eluting stents implanted in coronary arteries, Whole blood concentration, SS17 stents, 1 D group, 150 min.), 11.3 ng/mL. The Whole blood concentration entry in [8] (SS16 stents, 1 D group, 24 hr (Day 1)) was “BQL”; in data set [8] (SS16 stents, 1 D group, Pre-implant), “BQL”; in data set [8] (SS16 stents, 1 H group, Pre-implant), “BQL”; in data set [8] (SS16 stents, 7 D group, Day 7) it was “BQL”; in data set [8] (SS16 stents, 7 D group, Pre-implant) it was “BQL”; in data set [8] (SS16 stents, 28 D group, Day 28), “BQL”. Besides, the Whole blood concentration result is on record as “BQL” in data set [8] (SS16 stents, 28 D group, Pre-implant); “BQL” in data set [8] (SS17 stents, 1 D group, Pre-implant); “BQL” in [8] (SS17 stents, 1 H group, Pre-implant); “BQL” in [8] (SS17 stents, 7 D group, Day 7); “BQL” in [8] (SS17 stents, 7 D group, Pre-implant); “BQL” in [8] (SS17 stents, 28 D group, Day 28). Further, the Whole blood concentration entry in data set [8] (SS17 stents, 28 D group, Pre-implant) is listed as “BQL”. The “systemic blood concentration versus systemic therapeutic concentrations (Cmax, Cmean, Ctrough)” value in [8] (drug eluting stents SS15, SS16, SS17) is on record as “below”. Also, the concentration at 30 min in [8] (pig, whole blood, other: drug eluting stent implanted in coronary artery, Whole blood concentration, SS16 stents, 1 D group) turned out to be 3.76 ng/mL; in [8] (setting [10]), 3.34 ng/mL; in [8] (setting [12]), 20.1 ng/mL; in data set [8] (setting [13]) it was 8.44 ng/mL. The concentration at 45 min in [8] (setting [10]) is 3.68 ng/mL; in data set [8] (setting [11]), 3.47 ng/mL; in data set [8] (setting [12]), 19.5 ng/mL; in data set [8] (setting [13]) it was 7.82 ng/mL. For the same compound, the concentration at 180 min in data set [8] (pig, whole blood, other: drug eluting stent implanted in coronary artery, Whole blood concentration, SS17 stents, 1 D group) amounted to 8.39 ng/mL; in data set [8] (setting [11]), 1.95 ng/mL. The concentration at 4 h in data set [8] (pig, whole blood, other: drug eluting stent implanted in coronary artery, Whole blood concentration, SS17 stents, 1 D group, 4 hr) was 3.74 ng/mL. In addition, in [8] (pig, whole blood, other: drug eluting stent implanted in coronary artery, Whole blood concentration, SS17 stents, 1 D group, 5 hr), the concentration at 5 h stood at 3.9 ng/mL. This compound registered a concentration at 6 h in data set [8] (pig, whole blood, other: drug eluting stent implanted in coronary artery, Whole blood concentration, SS17 stents, 1 D group, 6 hr) of 3.1 ng/mL. The compound further registered a concentration at 24 h in data set [8] (pig, whole blood, other: drug eluting stent implanted in coronary artery, Whole blood concentration, SS17 stents, 1 D group, 24 hr (Day 1)) of 0.16 ng/mL. In addition, the concentration at 60 min in data set [8] (setting [11]) stood at 2.61 ng/mL; in [8] (pig, whole blood, other: drug eluting stents implanted in coronary arteries, Whole blood concentration, SS16 stents, 1 H group) it was 4.08 ng/mL; in [8] (setting [12]), 18.5 ng/mL; in data set [8] (setting [13]), 7.54 ng/mL. Moreover, the concentration at 90 min worked out at 2.43 ng/mL in data set [8] (setting [11]) and 15 ng/mL in data set [8] (setting [12]). For the same compound, the values for the concentration at 120 min in data set [8] (setting [11]) and in data set [8] (setting [12]) were 2.3 ng/mL and 11.6 ng/mL, respectively. This compound gave a concentration at 4 hr in data set [8] (pig, whole blood, other: drug eluting stents implanted in coronary arteries, Whole blood concentration, SS16 stents, 1 D group, 4 hr) of 1.23 ng/mL. Besides, in [8] (pig, whole blood, other: drug eluting stents implanted in coronary arteries, Whole blood concentration, SS16 stents, 1 D group, 5 hr), the concentration at 5 hr was determined as 1.11 ng/mL. Further, the concentration at 6 hr in data set [8] (pig, whole blood, other: drug eluting stents implanted in coronary arteries, Whole blood concentration, SS16 stents, 1 D group, 6 hr) is 1.03 ng/mL. For the same compound, the “inhibiting fibrin formation compared to control” value with porcine coronary artery [5] (at 7 days and/or at 28 days, faster release formulation) was “more effective”. Besides, the “inhibiting fibrin formation compared to bare metal control stents” value with porcine coronary artery [5] is on record as “more effective”. For the same compound, in the data set on porcine coronary artery [9], the “inhibiting smooth muscle cell proliferation (LLL) compared to bare metal control stents” value is “not more effective”.

Turning to Dalteparin, the “inhibiting fibrin formation compared to bare metal control stents” value with porcine coronary artery [5] was “not more effective”. Moreover, in the data set with porcine coronary artery [9], the “inhibiting smooth muscle cell proliferation (LLL) compared to bare metal control stents” value is “not more effective”.
